Assay results reported in PubChem BioAssay (NCI).
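Assay format: 96-well plates, 48-hour exposure. GI50 marks 50% less growth. The concentration for full growth arrest is given as TGI.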

Experiments:
Assay in all cases: DTP human tumour cell line panel, 48 h
ACHN renal = test system: ACHN renal
MDA-MB-468 breast = test system: MDA-MB-468 breast
SNB-75 CNS = test system: SNB-75 CNS
MCF7 breast = test system: MCF7 breast
SK-OV-3 ovarian = test system: SK-OV-3 ovarian
MOLT-4 leukemia = test system: MOLT-4 leukemia
MDA-MB-231 breast = test system: MDA-MB-231 breast
SK-MEL-5 melanoma = test system: SK-MEL-5 melanoma
786-0 renal = test system: 786-0 renal
HCC-2998 colon = test system: HCC-2998 colon
SF-295 CNS = test system: SF-295 CNS
HS 578T breast = test system: HS 578T breast
OVCAR-4 ovarian = test system: OVCAR-4 ovarian
HT29 colon = test system: HT29 colon
OVCAR-8 ovarian = test system: OVCAR-8 ovarian
MDA-MB-435 = test system: MDA-MB-435
HCT-116 colon = test system: HCT-116 colon
SR leukemia = test system: SR leukemia
UACC-257 melanoma = test system: UACC-257 melanoma
RPMI-8226 leukemia = test system: RPMI-8226 leukemia
KM12 colon = test system: KM12 colon
UO-31 renal = test system: UO-31 renal
SW-620 colon = test system: SW-620 colon
HCT-15 colon = test system: HCT-15 colon
HL-60(TB) leukemia = test system: HL-60(TB) leukemia
HOP-92 NSCLC = test system: HOP-92 NSCLC
M14 melanoma = test system: M14 melanoma
BT-549 breast = test system: BT-549 breast
DU-145 prostate = test system: DU-145 prostate
SF-268 CNS = test system: SF-268 CNS

Question: What does the source list for `CCCCSc1nc(Nc2ccc(/C(C)=N/NC(N)=S)cc2)c(C#N)c(-c2ccc(OC)cc2)n1`?
Answer: GI50 (ACHN renal): 15.3 µM; TGI (ACHN renal): 28.5 µM; GI50 (MDA-MB-468 breast): 18.1 µM; TGI (MDA-MB-468 breast): 49.1 µM; GI50 (SNB-75 CNS): 10.4 µM; TGI (SNB-75 CNS): 78.3 µM; GI50 (MCF7 breast): 17.1 µM; TGI (MCF7 breast): > 100 µM; GI50 (SK-OV-3 ovarian): 18 µM; TGI (SK-OV-3 ovarian): 32.1 µM; GI50 (MOLT-4 leukemia): > 100 µM; TGI (MOLT-4 leukemia): > 100 µM; GI50 (MDA-MB-231 breast): 2.27 µM; TGI (MDA-MB-231 breast): 8.21 µM; GI50 (SK-MEL-5 melanoma): 3.61 µM; TGI (SK-MEL-5 melanoma): 17 µM; GI50 (786-0 renal): 3.07 µM; TGI (786-0 renal): 10.9 µM; GI50 (HCC-2998 colon): 78.4 µM; TGI (HCC-2998 colon): > 100 µM; GI50 (SF-295 CNS): 10.1 µM; TGI (SF-295 CNS): 22.6 µM; GI50 (HS 578T breast): 2.78 µM; TGI (HS 578T breast): 16.4 µM; GI50 (OVCAR-4 ovarian): 6.45 µM; TGI (OVCAR-4 ovarian): 62.4 µM; GI50 (HT29 colon): > 100 µM; TGI (HT29 colon): > 100 µM; GI50 (OVCAR-8 ovarian): 10.8 µM; TGI (OVCAR-8 ovarian): 24 µM; GI50 (MDA-MB-435): 36.9 µM; TGI (MDA-MB-435): > 100 µM; GI50 (HCT-116 colon): 6.79 µM; TGI (HCT-116 colon): 30 µM; GI50 (SR leukemia): 57.1 µM; TGI (SR leukemia): > 100 µM; GI50 (UACC-257 melanoma): > 100 µM; TGI (UACC-257 melanoma): > 100 µM; GI50 (RPMI-8226 leukemia): 45.7 µM; TGI (RPMI-8226 leukemia): > 100 µM; GI50 (KM12 colon): > 100 µM; TGI (KM12 colon): > 100 µM; GI50 (UO-31 renal): 2.81 µM; TGI (UO-31 renal): 18.6 µM; GI50 (SW-620 colon): > 100 µM; TGI (SW-620 colon): > 100 µM; GI50 (HCT-15 colon): > 100 µM; TGI (HCT-15 colon): > 100 µM; GI50 (HL-60(TB) leukemia): > 100 µM; TGI (HL-60(TB) leukemia): > 100 µM; GI50 (HOP-92 NSCLC): 5.36 µM; TGI (HOP-92 NSCLC): 21.1 µM; GI50 (M14 melanoma): 8.52 µM; TGI (M14 melanoma): > 100 µM; GI50 (BT-549 breast): 6.55 µM; TGI (BT-549 breast): 26.9 µM; GI50 (DU-145 prostate): 10.2 µM; TGI (DU-145 prostate): > 100 µM; GI50 (SF-268 CNS): 26 µM
